melting point: 198 to 201 °C
Structure (SMILES): CC(C)(C)[C@H](NC(=O)[C@H](CCCc1ccc(-c2ccccc2)cc1)CC(=O)O)C(=O)Nc1ccncc1 [Example 32A, N-(2R-carboxymethyl-5-(biphen-4-yl)pentanoyl)-L-t-leucine-N′-(pyridin-4-yl)carboxamide]

— patent US6579890B1, “Matrix metalloprotease inhibitors” (Syntex (U.S.A.) Inc., priority 1993, dated 2003)
